Results from PMC7822874, “Chemoprotective antimalarials identified through quantitative high-throughput screening of Plasmodium blood and liver stage parasites” (Scientific Reports, 2021).
Like-named read-outs stand apart in the source and are kept apart here.

What was measured:
[1] = system: Plasmodium falciparum Dd2 asexual blood stage parasites; assay: microbe, parasite or virus in culture; design: species or system Plasmodium falciparum Dd2 in human erythrocytes; single determination (one 11-point concentration-response curve); details: Plasmodium falciparum, DD2, Erythrocyte, 72 h
in vitro = details: human
[2] = HepG2-A16-CD81EGFP cells, uninfected

Row | SMILES | AC50 ([1]; read-out: AC50) | viability at 48 h, 1 µM (in vitro; [2]) | viability at 48 h, 3 µM (in vitro; [2]) | viability at 66 h (in vitro; [2]) | also measured
1 | CC(C)Cc1cc(C(=O)Nc2cc(Br)ccc2O)no1 [MLS000116399-01] | 4730 nM | 120% | 110% | – | –
2 | OC(CN1CCN(c2ccccn2)CC1)Cn1c2ccc(Cl)cc2c2cc(Cl)ccc21 (stereo not shown) [MLS000529159-01] | 2990 nM | – | – | 102% | –
3 | COc1ccc2c(c1)C1(Nc3ccccc3-c3nc4ccccc4n31)C(=O)N2 (stereo not shown) [MLS000080605-01] | 596 nM | 99% | 104% | – | –
4 | COc1ccc(CCNC(=O)c2cc(C(=O)c3cc(Cl)ccc3O)cn(CCc3ccc(OC)cc3)c2=O)cc1 [MLS000402334-01] | 3760 nM | – | – | 105% | –
5 | O=C(/C=C/c1ccco1)NC(S)=Nc1ccccc1N1CCCC1 [MLS000663784-01] | 2660 nM | 107% | – | – | viability at 48 h (in vitro; [2]): 107%
6 | CCn1c2c(c(=N)c3c1CCC3)CCCC2 [MLS001047512-01] | 13300 nM | – | – | 100% | –
7 | Nc1nonc1-n1nnc(C(=O)N/N=C/c2cccs2)c1-c1ccc2c(c1)OCO2 [MLS001142649-01] | 1680 nM | 92% | 91% | – | –
8 | Oc1ccc(Cl)cc1-c1cc(C(F)(F)C(F)F)nc(-c2ccccc2)n1 [MLS000530553-01] | 841 nM | 93% | 87% | – | –
9 | CN(C)c1cc[n+](CC(=O)c2ccc(Br)cc2)cc1 [MLS000678949-01] | 7500 nM | – | – | 103% | –
10 | Oc1ccc(Cl)cc1CNCc1ccc(C(F)(F)F)cc1 [MLS002207454-01] | 4220 nM | – | – | 109% | –
11 | Cc1ccccc1Nc1cc(C)c2c(O)cccc2n1 [MLS000586981-01] | 5310 nM | 105% | 100% | – | –
12 | CCOCc1cnc(C)nc1NCC(=O)c1c(C)[nH]c2cc(C)ccc12 [MLS000595215-01] | 4220 nM | 97% | 94% | – | –
13 | CC(C)(C)c1ccc(O)c(CN2CCN(c3ccccc3)CC2)c1 [MLS000084717-01] | – | – | – | – | AC50 [1]: 1500 nM; viability (in vitro): 98.2%
14 | COc1ccc(-c2oc3ccccc3c2C#Cc2cncn2C)cc1 [MLS002402884-01] | 1060 nM | 112% | 95% | – | –
15 | Cc1ccccc1C(=O)NC(CC(C)C)C(=O)OCC(=O)c1c(N)n(C)c(=O)n(C)c1=O (stereo not shown) [MLS001033160-01] | 2660 nM | – | – | 106% | –
16 | CCN(CC)C1=NC(=[N+](CC)CC)c2ccccc21.[O-][Cl+3]([O-])([O-])O [MLS000565348-01] | 5310 nM | – | – | – | viability (in vitro): 81.5%
17 | CCCc1nnc(NC(=O)c2cn(CC)c3cc(N4CCN(C)CC4)c(F)cc3c2=O)s1 [MLS001049245-01] | 8410 nM | – | – | 105% | –
18 | COc1cc(O)c(C(CCN2CCCC(C)C2)c2ccc(N(C)C)cc2)c(OC)c1 (stereo not shown) [MLS000879516-01] | 1680 nM | 110% | – | – | viability at 48 h (in vitro; [2]): 110%
19 | O=c1c(=Cc2ccco2)sc2n1CN(c1cccc(Br)c1)CN=2 [MLS000535198-01] | 9440 nM | 103% | 103% | – | –
20 | C#CCN1c2ccccc2Sc2cccnc21 [MLS001166384-01] | 6680 nM | – | – | 99.6% | –
21 | COc1ccc2ccc(O)c(CN3CC=C(c4ccccc4)CC3)c2c1 [MLS000760157-01] | 8410 nM | – | – | – | viability at 48 h, 1 µM (in vitro): 107%; viability at 48 h, 3 µM (in vitro): 101%
22 | Cc1cc(N2CCN(C3CCCCC3)CC2)nc2cccc(O)c12 [MLS000118317-01] | 5310 nM | 104% | 105% | – | –
23 | O=C(CCl)N(c1ccccc1)c1c[nH]c2ccccc12 [MLS000554103-01] | 2110 nM | 100% | 100% | – | –
24 | CCN1CCN(Cc2ccc(NC(=O)c3ccc(C)c(NC(=O)C(=O)c4c[nH]c5ccccc45)c3)cc2C(F)(F)F)CC1 [MLS003105967-01] | 1500 nM | – | – | 106% | –
25 | COc1cc(NC(=O)c2cc3c(Cl)nc4ccccc4c3s2)cc(OC)c1OC [MLS000582472-01] | 4730 nM | 90% | 84% | – | –
26 | CCC(C)c1ccc(O)c(NC(=O)c2cncc(Br)c2)c1 (stereo not shown) [MLS000062368-01] | 2990 nM | 113% | 103% | – | –
27 | C/C(Cl)=C/Cc1c(C)nc2c(ccc3ccccc32)c1O [MLS001211902-01] | 841 nM | 86% | 92% | – | –
28 | CCCCN(CC)CCNC(=O)c1cc2c(-c3ccc(Cl)cc3)nn(C)c2s1 [NCGC00108995-01] | 668 nM | 102% | 97% | – | –
29 | Cc1cc(Nc2ccc3ccccc3c2)n2ncnc2n1 [MLS000077665-01] | 596 nM | 88% | 86% | – | –
30 | COc1ccc(CN2CCCC(C(=O)c3ccc(Cl)cc3)C2)c(O)c1 (stereo not shown) [MLS000998855-01] | 531 nM | – | – | – | viability at 48 h, 1 µM (in vitro): 101%; viability at 48 h, 3 µM (in vitro): 103%
